Structures are written as SMILES.

Consider 2 compounds from patent US7641927B2, “Chewing gum and confectionery compositions containing a stain removing complex, and methods of making and using the same” (Cadbury Adams USA, LLC, priority 2006, dated 2010).

This assay is described as follows: Stain removal study on stained hydroxyapatite (HAP) disks, CIELAB ΔE. The note with it: test solution in artificial human saliva, one hour treatment, 15 ml/min, 37° C.; FIG. 2. The method, then:
A flow system was assembled for staining samples of hydroxyapatite (HAP) disks using a staining solution. The staining solution was prepared from a mixture containing tea, coffee and porcine gastric mucin. The staining solution was circulated through the flow system at a rate of about 15 ml/min, and passed continuously over the HAP disks for about 96 hours at about 37° C. After 96 hours, the stained HAP disks were then placed in artificial human saliva (as prepared in Example 5) at a pH of about 7, and were then rinsed and allowed to dry. The HAP disks were segregated into 6 sample groups. Each of the HAP disks were measured to yield a baseline L*a*b stain score in accordance with the Commission International de L'Eclairage Laboratory (CIELAB) color scale. The CIELAB scale quantifies color according to 3 parameters, L* (lightness-darkness scale), a* (red-green chroma), and b* (yellow-blue chroma). In order to obtain reproducible readings, the stained HAP disks were allowed to air-dry at room temperature for about 2 hours before measurement is to be made. The baseline stain measurements were taken by making diffuse reflectance absorbance readings with a Minolta spectrophotometer. The absorbance readings over the entire visible color spectrum were obtained for each HAP disk. […] The overall change in stain level ΔE was determined for each of the treated HAP disks.

`OC[C@H]1O[C@@H]2O[C@H]3[C@H](O)[C@@H](O)[C@@H](O[C@H]4[C@H](O)[C@@H](O)[C@@H](O[C@H]5[C@H](O)[C@@H](O)[C@@H](O[C@H]6[C@H](O)[C@@H](O)[C@@H](O[C@H]7[C@H](O)[C@@H](O)[C@@H](O[C@H]8[C@H](O)[C@@H](O)[C@@H](O[C@H]1[C@H](O)[C@H]2O)O[C@@H]8CO)O[C@@H]7CO)O[C@@H]6CO)O[C@@H]5CO)O[C@@H]4CO)O[C@@H]3CO` [β-cyclodextrin]: the “stain removing activity (ΔE)” value is “least stain removing activity”.
Then `CCCCCCCCCCCCCCCCCC(=O)[O-].[Na+]` [sodium stearate], with “least stain removing activity”.
